Test results: ChEMBL document CHEMBL1124815, “Novel piperidine derivatives. Synthesis and anti-acetylcholinesterase activity of 1-benzyl-4-[2-(N-benzoylamino)ethyl]piperidine derivatives” (J Med Chem, 1990)

Legend:
Acetylcholinesterase = target: T1, Acetylcholinesterase (Mus musculus, UniProt P21836); assay: Inhibitory activity against mouse brain Acetylcholinesterase
T1 sequence (P21836 whole entry): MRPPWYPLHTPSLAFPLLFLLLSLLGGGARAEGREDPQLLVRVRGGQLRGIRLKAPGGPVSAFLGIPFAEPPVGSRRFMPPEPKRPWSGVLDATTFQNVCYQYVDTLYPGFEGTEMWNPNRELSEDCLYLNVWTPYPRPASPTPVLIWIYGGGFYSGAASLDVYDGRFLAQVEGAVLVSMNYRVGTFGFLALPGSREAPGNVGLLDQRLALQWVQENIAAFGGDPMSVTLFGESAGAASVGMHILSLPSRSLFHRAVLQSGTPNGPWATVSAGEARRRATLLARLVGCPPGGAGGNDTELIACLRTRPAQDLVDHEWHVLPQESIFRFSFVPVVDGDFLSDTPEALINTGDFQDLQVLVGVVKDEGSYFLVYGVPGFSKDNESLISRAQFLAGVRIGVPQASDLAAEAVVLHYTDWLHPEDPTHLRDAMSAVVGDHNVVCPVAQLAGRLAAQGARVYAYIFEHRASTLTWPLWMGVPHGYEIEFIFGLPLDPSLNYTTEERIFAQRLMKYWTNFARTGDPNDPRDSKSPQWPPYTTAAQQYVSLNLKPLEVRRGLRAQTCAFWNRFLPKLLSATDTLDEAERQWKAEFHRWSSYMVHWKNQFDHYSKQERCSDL

[1] = target: T2, Acetylcholinesterase (Mus musculus) (UniProt P21836); assay: Reversibility of Acetylcholinesterase enzyme inhibition by compound (0.27 uM) after dialysis
T2 sequence (whole entry): T1 sequence (P21836 whole entry)

[2] = target: T2, Acetylcholinesterase (Mus musculus); assay: Reversibility of Acetylcholinesterase enzyme inhibition by compound (0.27 uM) before dialysis
[3] = target: T2, Acetylcholinesterase (Mus musculus); assay: Reversibility of Acetylcholinesterase enzyme inhibition by compound (0.91 uM) after dialysis
[4] = target: T2, Acetylcholinesterase (Mus musculus); assay: Reversibility of Acetylcholinesterase enzyme inhibition by compound (91 uM) after dialysis
[5] = target: T2, Acetylcholinesterase (Mus musculus); assay: Reversibility of Acetylcholinesterase enzyme inhibition by compound (91 uM) before dialysis
Butyrylcholinesterase = Butyrylcholinesterase (Rattus norvegicus, UniProt Q9JKC1); assay: Inhibitory activity against rat butyrylcholinesterase enzyme (BuChE)
[6] = target: T2, Acetylcholinesterase (Mus musculus); assay: Reversibility of Acetylcholinesterase enzyme inhibition by compound (0.91 uM) before dialysis

Butyrylcholinesterase, sequence (Q9JKC1 whole entry): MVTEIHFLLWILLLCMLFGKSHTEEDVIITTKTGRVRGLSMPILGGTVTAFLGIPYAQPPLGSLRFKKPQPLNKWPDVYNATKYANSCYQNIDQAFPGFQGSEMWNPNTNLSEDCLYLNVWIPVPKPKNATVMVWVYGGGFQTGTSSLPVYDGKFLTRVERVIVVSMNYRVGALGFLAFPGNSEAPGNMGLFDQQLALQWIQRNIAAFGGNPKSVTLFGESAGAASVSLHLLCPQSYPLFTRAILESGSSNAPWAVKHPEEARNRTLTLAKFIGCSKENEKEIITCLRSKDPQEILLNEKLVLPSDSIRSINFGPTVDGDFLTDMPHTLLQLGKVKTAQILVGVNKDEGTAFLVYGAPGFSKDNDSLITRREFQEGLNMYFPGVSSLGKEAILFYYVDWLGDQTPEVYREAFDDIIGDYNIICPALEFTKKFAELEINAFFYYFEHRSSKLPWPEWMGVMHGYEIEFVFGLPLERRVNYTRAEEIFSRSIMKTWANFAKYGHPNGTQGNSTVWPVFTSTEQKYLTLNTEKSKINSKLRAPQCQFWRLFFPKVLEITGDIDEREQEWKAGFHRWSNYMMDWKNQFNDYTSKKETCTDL

`O=C(NCCC1CCN(Cc2ccccc2)CC1)c1ccc(S(=O)(=O)Cc2ccccc2)cc1` showed an IC50 (Acetylcholinesterase) of 29 nM.
Compound `CC(=O)c1ccc(C(=O)NCCC2CCN(Cc3ccccc3)CC2)cc1` has an IC50 (Acetylcholinesterase) of 51 nM.
In the case of `O=C(NCCC1CCN(Cc2ccccc2)CC1)c1cccc([N+](=O)[O-])c1`, the IC50 (Acetylcholinesterase) is reported as 230 nM.
Compound `O=C(NCCC1CCN(Cc2ccccc2)CC1)c1ccncc1` has an IC50 (Acetylcholinesterase) of 39 nM.
Work on `O=C(CCCC1CCN(Cc2ccccc2)CC1)c1ccccc1` yielded an IC50 (Acetylcholinesterase) of 530 nM.
`c1ccc(CNCCC2CCN(Cc3ccccc3)CC2)cc1` showed an IC50 (Acetylcholinesterase) of 46000 nM.
`O=C(c1ccc(S(=O)(=O)Cc2ccccc2)cc1)N(CCC1CCN(Cc2ccccc2)CC1)c1ccccc1` gave an IC50 (Acetylcholinesterase) of 0.6 nM.
Work on `CCN(CCC1CCN(Cc2ccccc2)CC1)C(=O)c1ccc(S(=O)(=O)Cc2ccccc2)cc1` yielded an IC50 (Acetylcholinesterase) of 0.3 nM.
`O=C(NCCC1CCN(Cc2ccccc2)CC1)C1CCCCC1` gave an IC50 (Acetylcholinesterase) of 1600 nM.
`O=C(NCCC1CCN(Cc2ccccc2)CC1)c1ccccc1[N+](=O)[O-]` was tested, and the IC50 (Acetylcholinesterase) was 880 nM.
`O=C(c1ccccc1)N(CCC1CCN(Cc2ccccc2)CC1)Cc1ccccc1` gave an IC50 (Acetylcholinesterase) of 940 nM.
`Cc1ccccc1C(=O)NCCC1CCN(Cc2ccccc2)CC1` was tested, and the IC50 (Acetylcholinesterase) was 1000 nM.
With `Cc1cccc(C(=O)NCCC2CCN(Cc3ccccc3)CC2)c1` the IC50 (Acetylcholinesterase) was 470 nM.
`CCN(CCC1CCN(Cc2ccccc2)CC1)C(=O)c1ccccc1` showed an IC50 (Acetylcholinesterase) of 130 nM.
In the case of `CN(CCC1CCN(Cc2ccccc2)CC1)C(=O)c1ccc(S(=O)(=O)Cc2ccccc2)cc1`, the Reversibility [1] is reported as 17.7, the Reversibility [2] is reported as 9.1 and the Reversibility [3] is reported as 17.8. For the same compound, the Reversibility [4] was 16.5, the Reversibility [5] was 2.59 and the IC50 (Butyrylcholinesterase) was 10100 nM. It also gave a Reversibility [6] of 5.42.
Compound `O=C(NCCC1CCN(Cc2ccccc2)CC1)c1cccnc1` has an IC50 (Acetylcholinesterase) of 69 nM.
Compound `O=C(NCCC1CCN(Cc2ccccc2)CC1)c1ccccn1` has an IC50 (Acetylcholinesterase) of 800 nM.
In the case of `O=C(NCCC1CCN(Cc2ccccc2)CC1)c1ccc(Cl)cc1`, the IC50 (Acetylcholinesterase) is reported as 180 nM.
For `O=C(NCCC1CCN(Cc2ccccc2)CC1)c1cc[n+]([O-])cc1`, the IC50 (Acetylcholinesterase) was 155 nM.
For `O=C(c1ccccc1)N(CCC1CCN(Cc2ccccc2)CC1)c1ccccc1`, the IC50 (Acetylcholinesterase) was 35 nM.
Compound `O=Cc1ccc(C(=O)NCCC2CCN(Cc3ccccc3)CC2)cc1` has an IC50 (Acetylcholinesterase) of 120 nM.
In the case of `COc1ccc(C(=O)NCCC2CCN(Cc3ccccc3)CC2)cc1`, the IC50 (Acetylcholinesterase) is reported as 88 nM.
In the case of `O=C(NCCC1CCN(Cc2ccccc2)CC1)c1ccc(F)cc1`, the IC50 (Acetylcholinesterase) is reported as 85 nM.
`Cc1ccc(C(=O)NCCC2CCN(Cc3ccccc3)CC2)cc1` gave an IC50 (Acetylcholinesterase) of 180 nM.
